The values below are quoted from earlier work in patent US20140187520A1, “STABLE INJECTABLE PHARMACEUTICAL COMPOSITION OF VITAMIN D RECEPTOR AGONIST AND PROCESS FOR PREPARATION THEREOF” (PHARMATHEN S.A., priority 2012, published 2014).

As for `C[C@H](/C=C/[C@H](C)C(C)(C)O)[C@H]1CC[C@H]2/C(=C/C=C3C[C@@H](O)C[C@H](O)C3)CCC[C@]12C` [paricalcitol, 19-nor-1α,3β,25-trihydroxy-9,10-secoergosta-5(Z),7(E), 22(E)-triene], the solubility in alcohol result (alcohol) was “soluble”. The solubility in water entry (water) is reported as “insoluble”.
